Legend:
Assay in all cases: SelectScreen kinase panel
Format in all cases: biochemical
MST4 = target: T1, MST4 (Homo sapiens, UniProt Q9P289)
T1 construct: purchased Invitrogen / ThermoFisher SelectScreen
Outline: (§1)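 Human kinases were profiled in Invitrogen's SelectScreen broad panel. Depending on the enzyme, inhibition was assessed by peptide phosphorylation (Z′-LYTE), by ADP formation (Adapta), or by displacement at the ATP site (LanthaScreen), and then reported as mean percent inhibition.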

P38_beta = target: T2, P38_beta (Homo sapiens, UniProt Q15759)
T2 construct: purchased Invitrogen / ThermoFisher SelectScreen
Outline: as §1

PKC_theta = target: T3, PKC_theta (Homo sapiens, UniProt Q04759)
T3 construct: purchased Invitrogen / ThermoFisher SelectScreen
Outline: as §1

PKG1_alpha = target: T4, PKG1_alpha (Homo sapiens, UniProt Q13976)
T4 construct: purchased Invitrogen / ThermoFisher SelectScreen
Outline: as §1

Mink1 = target: T5, Mink1 (Homo sapiens, UniProt Q8N4C8)
T5 construct: purchased Invitrogen / ThermoFisher SelectScreen
Outline: as §1

RSK1 = target: T6, RSK1 (Homo sapiens, UniProt Q15418)
T6 construct: purchased Invitrogen / ThermoFisher SelectScreen
Outline: as §1

MuSK = target: T7, MuSK (Homo sapiens, UniProt O15146)
T7 construct: purchased Invitrogen / ThermoFisher SelectScreen
T7 sequence (O15146 24-869): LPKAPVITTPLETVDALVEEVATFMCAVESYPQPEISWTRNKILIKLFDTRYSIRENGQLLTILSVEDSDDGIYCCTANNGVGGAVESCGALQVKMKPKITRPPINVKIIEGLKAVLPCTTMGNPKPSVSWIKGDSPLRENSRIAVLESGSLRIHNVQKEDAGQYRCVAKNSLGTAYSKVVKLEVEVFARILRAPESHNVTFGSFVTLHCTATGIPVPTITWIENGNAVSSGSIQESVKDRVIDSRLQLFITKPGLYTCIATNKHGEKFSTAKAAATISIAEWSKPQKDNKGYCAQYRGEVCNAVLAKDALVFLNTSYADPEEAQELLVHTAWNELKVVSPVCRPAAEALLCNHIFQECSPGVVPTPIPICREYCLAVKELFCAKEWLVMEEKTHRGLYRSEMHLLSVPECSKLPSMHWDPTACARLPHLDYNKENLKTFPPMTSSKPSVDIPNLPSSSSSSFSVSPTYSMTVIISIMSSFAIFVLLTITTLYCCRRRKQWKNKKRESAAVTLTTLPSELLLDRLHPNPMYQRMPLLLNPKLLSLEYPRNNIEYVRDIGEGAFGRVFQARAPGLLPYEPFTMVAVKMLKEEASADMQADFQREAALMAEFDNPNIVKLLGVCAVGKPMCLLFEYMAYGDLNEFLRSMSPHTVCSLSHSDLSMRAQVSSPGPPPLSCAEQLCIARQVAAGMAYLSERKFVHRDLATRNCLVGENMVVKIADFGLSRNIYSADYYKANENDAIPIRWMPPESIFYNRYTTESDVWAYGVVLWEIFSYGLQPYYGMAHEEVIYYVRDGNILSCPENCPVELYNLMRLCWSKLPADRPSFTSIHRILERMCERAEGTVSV
Outline: as §1

Ros = target: T8, Ros (Homo sapiens, UniProt P08922)
T8 construct: purchased Invitrogen / ThermoFisher SelectScreen
Outline: as §1

mTOR = target: T9, mTOR (Homo sapiens, UniProt P42345)
T9 construct: purchased Invitrogen / ThermoFisher SelectScreen
Outline: as §1

CSF1R = target: T10, CSF1R (Homo sapiens, UniProt P07333)
T10 construct: purchased Invitrogen / ThermoFisher SelectScreen
T10 sequence (P07333 20-972): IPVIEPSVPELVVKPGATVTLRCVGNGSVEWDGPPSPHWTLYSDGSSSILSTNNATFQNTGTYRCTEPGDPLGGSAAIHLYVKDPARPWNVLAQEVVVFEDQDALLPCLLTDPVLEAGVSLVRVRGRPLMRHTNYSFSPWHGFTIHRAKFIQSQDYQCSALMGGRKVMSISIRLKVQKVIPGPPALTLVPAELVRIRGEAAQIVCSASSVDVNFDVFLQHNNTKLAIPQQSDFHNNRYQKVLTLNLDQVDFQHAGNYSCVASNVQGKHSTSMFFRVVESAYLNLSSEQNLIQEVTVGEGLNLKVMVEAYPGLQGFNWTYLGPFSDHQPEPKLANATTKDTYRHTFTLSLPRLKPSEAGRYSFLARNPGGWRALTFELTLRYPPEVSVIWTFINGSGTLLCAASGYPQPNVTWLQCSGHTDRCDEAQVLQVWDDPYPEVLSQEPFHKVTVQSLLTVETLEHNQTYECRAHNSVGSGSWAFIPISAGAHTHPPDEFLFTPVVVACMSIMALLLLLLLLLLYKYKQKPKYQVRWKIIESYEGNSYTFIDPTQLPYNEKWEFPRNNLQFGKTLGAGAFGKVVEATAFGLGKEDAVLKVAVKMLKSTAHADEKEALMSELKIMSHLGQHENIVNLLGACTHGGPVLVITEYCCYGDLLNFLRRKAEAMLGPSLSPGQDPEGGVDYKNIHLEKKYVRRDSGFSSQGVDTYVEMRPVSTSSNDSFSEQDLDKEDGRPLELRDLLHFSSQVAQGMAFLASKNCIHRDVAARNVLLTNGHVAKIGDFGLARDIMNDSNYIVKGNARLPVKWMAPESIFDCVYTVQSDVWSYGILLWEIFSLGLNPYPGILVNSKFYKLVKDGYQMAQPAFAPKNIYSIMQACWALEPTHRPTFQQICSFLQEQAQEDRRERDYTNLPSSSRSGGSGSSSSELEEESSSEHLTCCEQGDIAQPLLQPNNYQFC
Outline: as §1

Flt3 = target: T11, Flt3 (Homo sapiens, UniProt P36888)
T11 construct: purchased Invitrogen / ThermoFisher SelectScreen
T11 sequence (P36888 27-993): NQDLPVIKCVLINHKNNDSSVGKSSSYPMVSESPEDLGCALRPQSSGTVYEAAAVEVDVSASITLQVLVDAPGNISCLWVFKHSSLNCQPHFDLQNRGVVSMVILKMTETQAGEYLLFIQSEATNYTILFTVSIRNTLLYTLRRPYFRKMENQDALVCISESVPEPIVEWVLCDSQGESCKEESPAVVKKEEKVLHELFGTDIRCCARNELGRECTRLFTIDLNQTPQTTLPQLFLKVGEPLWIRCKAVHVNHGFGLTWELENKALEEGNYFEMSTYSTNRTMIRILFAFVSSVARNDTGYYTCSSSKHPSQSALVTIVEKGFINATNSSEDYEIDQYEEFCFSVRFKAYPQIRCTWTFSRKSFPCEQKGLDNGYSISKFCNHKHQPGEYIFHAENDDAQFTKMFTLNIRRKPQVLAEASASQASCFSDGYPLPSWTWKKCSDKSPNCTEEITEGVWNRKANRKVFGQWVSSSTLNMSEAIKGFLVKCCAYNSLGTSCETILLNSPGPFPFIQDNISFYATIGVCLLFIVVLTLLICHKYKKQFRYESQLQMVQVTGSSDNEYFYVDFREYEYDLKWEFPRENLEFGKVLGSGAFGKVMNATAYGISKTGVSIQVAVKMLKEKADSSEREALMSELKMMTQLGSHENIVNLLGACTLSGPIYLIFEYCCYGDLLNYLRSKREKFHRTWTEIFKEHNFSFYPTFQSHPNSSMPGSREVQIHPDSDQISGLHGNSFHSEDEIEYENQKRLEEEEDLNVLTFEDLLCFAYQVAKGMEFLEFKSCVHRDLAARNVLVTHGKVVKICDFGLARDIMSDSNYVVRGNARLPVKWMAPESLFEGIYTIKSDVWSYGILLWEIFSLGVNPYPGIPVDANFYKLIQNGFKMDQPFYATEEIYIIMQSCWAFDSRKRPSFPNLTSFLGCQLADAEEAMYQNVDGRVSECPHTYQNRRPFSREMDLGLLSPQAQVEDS
Outline: as §1

CDK1/cyclinB = target: T12, CDK1/cyclinB (Homo sapiens, UniProt P06493)
T12 construct: purchased Invitrogen / ThermoFisher SelectScreen
Outline: as §1

DNA-PK = target: T13, DNA-PK (Homo sapiens, UniProt P78527)
T13 construct: purchased Invitrogen / ThermoFisher SelectScreen
Outline: as §1

Abl = target: T14, Abl (Homo sapiens, UniProt P00519)
T14 construct: purchased Invitrogen / ThermoFisher SelectScreen
Outline: as §1

PrKX = target: T15, PrKX (Homo sapiens, UniProt P51817)
T15 construct: purchased Invitrogen / ThermoFisher SelectScreen
Outline: as §1

SIK2 = target: T16, SIK2 (Homo sapiens, UniProt Q9H0K1)
T16 construct: purchased Invitrogen / ThermoFisher SelectScreen
Outline: as §1

FGFR3 = target: T17, FGFR3 (Homo sapiens, UniProt P22607)
T17 construct: purchased Invitrogen / ThermoFisher SelectScreen
T17 sequence (P22607 23-806): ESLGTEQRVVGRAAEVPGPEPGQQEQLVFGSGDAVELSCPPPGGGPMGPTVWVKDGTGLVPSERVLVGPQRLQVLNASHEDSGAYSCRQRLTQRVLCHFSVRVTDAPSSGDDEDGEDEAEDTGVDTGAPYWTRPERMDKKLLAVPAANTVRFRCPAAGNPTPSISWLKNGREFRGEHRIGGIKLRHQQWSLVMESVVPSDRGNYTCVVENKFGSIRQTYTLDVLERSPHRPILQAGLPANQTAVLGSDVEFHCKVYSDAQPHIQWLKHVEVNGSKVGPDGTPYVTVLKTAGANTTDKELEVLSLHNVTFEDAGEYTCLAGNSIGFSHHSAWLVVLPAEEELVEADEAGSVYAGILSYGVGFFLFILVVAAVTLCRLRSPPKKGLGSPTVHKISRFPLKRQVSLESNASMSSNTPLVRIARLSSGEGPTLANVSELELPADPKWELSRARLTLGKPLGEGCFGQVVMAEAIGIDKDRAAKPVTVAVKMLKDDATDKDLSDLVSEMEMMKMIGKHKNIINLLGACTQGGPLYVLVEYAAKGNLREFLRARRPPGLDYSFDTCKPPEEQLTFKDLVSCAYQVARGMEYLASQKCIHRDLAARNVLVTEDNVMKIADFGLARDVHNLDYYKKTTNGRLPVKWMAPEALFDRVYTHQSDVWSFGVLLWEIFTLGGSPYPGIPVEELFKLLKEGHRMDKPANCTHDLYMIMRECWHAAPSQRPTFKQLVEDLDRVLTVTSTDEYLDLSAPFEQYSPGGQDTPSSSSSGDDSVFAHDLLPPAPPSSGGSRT
Outline: as §1

PAK3 = target: T18, PAK3 (Homo sapiens, UniProt O75914)
T18 construct: purchased Invitrogen / ThermoFisher SelectScreen
T18 sequence (O75914 whole entry): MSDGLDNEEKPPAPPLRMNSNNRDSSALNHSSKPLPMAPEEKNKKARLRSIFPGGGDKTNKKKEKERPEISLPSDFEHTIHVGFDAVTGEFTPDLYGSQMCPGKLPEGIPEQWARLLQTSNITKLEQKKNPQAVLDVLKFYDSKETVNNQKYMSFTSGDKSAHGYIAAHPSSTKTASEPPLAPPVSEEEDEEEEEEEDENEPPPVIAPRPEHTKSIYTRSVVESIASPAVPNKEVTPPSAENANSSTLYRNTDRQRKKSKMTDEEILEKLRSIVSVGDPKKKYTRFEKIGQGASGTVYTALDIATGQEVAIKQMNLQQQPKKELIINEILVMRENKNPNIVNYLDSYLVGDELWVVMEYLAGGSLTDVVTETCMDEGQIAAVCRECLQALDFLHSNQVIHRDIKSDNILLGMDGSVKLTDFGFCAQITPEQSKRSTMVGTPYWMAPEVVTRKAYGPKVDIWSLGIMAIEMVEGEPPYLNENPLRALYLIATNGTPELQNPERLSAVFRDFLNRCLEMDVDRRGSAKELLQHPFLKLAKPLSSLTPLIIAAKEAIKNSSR
Outline: as §1

GRK3 = target: T19, GRK3 (Homo sapiens, UniProt P35626)
T19 construct: purchased Invitrogen / ThermoFisher SelectScreen
Outline: as §1

Met = target: T20, Met (Homo sapiens, UniProt P08581)
T20 construct: purchased Invitrogen / ThermoFisher SelectScreen
Outline: as §1

SGK1 = target: T21, SGK1 (Homo sapiens, UniProt O00141)
T21 construct: purchased Invitrogen / ThermoFisher SelectScreen
Outline: as §1

TBK1 = target: T22, TBK1 (Homo sapiens, UniProt Q9UHD2)
T22 construct: purchased Invitrogen / ThermoFisher SelectScreen
Outline: as §1

KDR = target: T23, KDR (Homo sapiens, UniProt P35968)
T23 construct: purchased Invitrogen / ThermoFisher SelectScreen
Outline: as §1

Axl = target: T24, Axl (Homo sapiens, UniProt P30530)
T24 construct: purchased Invitrogen / ThermoFisher SelectScreen
Outline: as §1

MAPKAPK3 = target: T25, MAPKAPK3 (Homo sapiens, UniProt Q16644)
T25 construct: purchased Invitrogen / ThermoFisher SelectScreen
T25 sequence (Q16644 whole entry): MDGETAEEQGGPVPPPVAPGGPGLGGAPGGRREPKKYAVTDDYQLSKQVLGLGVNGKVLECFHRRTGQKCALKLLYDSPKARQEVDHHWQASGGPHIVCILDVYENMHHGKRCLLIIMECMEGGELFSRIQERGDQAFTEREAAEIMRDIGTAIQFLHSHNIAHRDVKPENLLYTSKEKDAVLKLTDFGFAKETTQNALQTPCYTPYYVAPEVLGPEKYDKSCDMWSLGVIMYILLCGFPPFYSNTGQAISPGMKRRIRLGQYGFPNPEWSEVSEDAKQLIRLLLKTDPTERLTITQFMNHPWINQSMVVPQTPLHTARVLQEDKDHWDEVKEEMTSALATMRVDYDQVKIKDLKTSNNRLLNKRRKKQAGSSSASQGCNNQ
Outline: as §1

JNK1_alpha1 = target: T26, JNK1_alpha1 (Homo sapiens, UniProt P45983)
T26 construct: purchased Invitrogen / ThermoFisher SelectScreen
Outline: as §1

NEK4 = target: T27, NEK4 (Homo sapiens, UniProt P51957)
T27 construct: purchased Invitrogen / ThermoFisher SelectScreen
Outline: as §1

Yes = target: T28, Yes (Homo sapiens, UniProt P07947)
T28 construct: purchased Invitrogen / ThermoFisher SelectScreen
T28 sequence (P07947 whole entry): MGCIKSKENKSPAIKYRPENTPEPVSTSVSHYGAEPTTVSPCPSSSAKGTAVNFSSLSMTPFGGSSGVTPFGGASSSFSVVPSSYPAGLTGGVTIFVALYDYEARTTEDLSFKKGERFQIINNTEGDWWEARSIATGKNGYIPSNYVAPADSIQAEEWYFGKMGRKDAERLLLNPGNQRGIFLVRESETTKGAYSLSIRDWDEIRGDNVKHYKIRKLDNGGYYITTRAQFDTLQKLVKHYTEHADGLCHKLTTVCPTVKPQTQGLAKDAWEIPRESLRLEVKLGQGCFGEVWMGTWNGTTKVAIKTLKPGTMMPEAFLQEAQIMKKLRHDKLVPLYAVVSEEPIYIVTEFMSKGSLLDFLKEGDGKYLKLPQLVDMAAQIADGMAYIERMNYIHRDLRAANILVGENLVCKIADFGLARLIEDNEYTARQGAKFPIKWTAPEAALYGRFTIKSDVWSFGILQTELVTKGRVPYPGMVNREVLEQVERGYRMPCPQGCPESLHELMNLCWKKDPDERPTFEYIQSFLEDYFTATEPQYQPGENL
Outline: as §1

InsR = target: T29, InsR (Homo sapiens, UniProt P06213)
T29 construct: purchased Invitrogen / ThermoFisher SelectScreen
Outline: as §1

ITK = target: T30, ITK (Homo sapiens, UniProt Q08881)
T30 construct: purchased Invitrogen / ThermoFisher SelectScreen
Outline: as §1

PLK2 = target: T31, PLK2 (Homo sapiens, UniProt Q9NYY3)
T31 construct: purchased Invitrogen / ThermoFisher SelectScreen
Outline: as §1

PRKAA1 = target: T32, PRKAA1 (Homo sapiens, UniProt Q13131)
T32 construct: purchased Invitrogen / ThermoFisher SelectScreen
Outline: as §1

SGK2 = target: T33, SGK2 (Homo sapiens, UniProt Q9HBY8)
T33 construct: purchased Invitrogen / ThermoFisher SelectScreen
Outline: as §1

COc1cc(C(N)=O)nc(-c2cccc(C#C[C@]3(O)CCN(C)C3=O)c2)c1 [NIK SMI1]
inhibition at 1 µM (MST4): 33.5%
inhibition at 1 µM (P38_beta): 9%
inhibition at 1 µM (PKC_theta): -6%
inhibition at 1 µM (PKG1_alpha): 14.5%
inhibition at 1 µM (Mink1): 53.5%
inhibition at 1 µM (RSK1): 4.5%
inhibition at 1 µM (MuSK): 6%
inhibition at 1 µM (Ros): 12.5%
inhibition at 1 µM (mTOR): -1%
inhibition at 1 µM (CSF1R): -11%
inhibition at 1 µM (Flt3): 13.5%
inhibition at 1 µM (CDK1/cyclinB): 8.5%
inhibition at 1 µM (DNA-PK): -4%
inhibition at 1 µM (Abl): 9.5%
inhibition at 1 µM (PrKX): 11%
inhibition at 1 µM (SIK2): 5.5%
inhibition at 1 µM (FGFR3): -3.5%
inhibition at 1 µM (PAK3): -3.5%
inhibition at 1 µM (GRK3): 1.5%
inhibition at 1 µM (Met): 0%
inhibition at 1 µM (SGK1): 5%
inhibition at 1 µM (TBK1): 26.5%
inhibition at 1 µM (KDR): -1.5%
inhibition at 1 µM (Axl): 9.3%
inhibition at 1 µM (MAPKAPK3): 1%
inhibition at 1 µM (JNK1_alpha1): 5.6%
inhibition at 1 µM (NEK4): 11%
inhibition at 1 µM (Yes): 0.5%
inhibition at 1 µM (InsR): 2%
inhibition at 1 µM (ITK): -3%
inhibition at 1 µM (PLK2): 4%
inhibition at 1 µM (PRKAA1): 20.5%
inhibition at 1 µM (SGK2): 9.5%
